Data reported in patent publication US20060069132A1, “Azolecarboxamide herbicides” (priority 2004, published 2006).

Assays:
[1] = tested on: smallflower umbrella sedge; experiment: Test C flooded paddy test; format: in vivo, Cyperus difformis; conditions: for Plant response rating, Sedge, Umbrella: 500 g ai/ha, visual rating after 12 to 14 days
barnyardgrass = experiment: Test C flooded paddy test; format: in vivo, Echinochloa crus-galli; conditions: for Plant response rating, Barnyardgrass: 500 g ai/ha, visual rating after 12 to 14 days
Summary of the method: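 Weeds and wheat were sprayed after emergence, at a height of 2 to 18 cm (1–4 leaves), and paddy barnyardgrass was flooded and treated at two leaves. Assessment took place 12–14 days later in the greenhouse on a 0-to-100 visual control scale. A dash means no result was obtained.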

velvetleaf = experiment: Test A pre-/postemergence herbicide test; format: in vivo, Abutilon theophrasti
Summary of the method: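 Both application timings were run together: directed soil spray over freshly planted seeds in sandy loam, and runoff spray onto 2–10 cm seedlings. Evaluation after ~10 days in greenhouse used a 0–100 visual scale versus untreated controls.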

rice = experiment: Test C flooded paddy test; format: in vivo, Oryza sativa; conditions: for Plant response rating, Rice: 500 g ai/ha, visual rating after 12 to 14 days
Summary of the method: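 Injury scored visually against controls on a 0 (no effect) to 100 (complete control) scale, 12 to 14 days after treatment in greenhouse. Flooded paddy plants treated at 2-leaf stage; postemergence plants at 1- to 4-leaf stage, 2 to 18 cm tall.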

morningglory = experiment: Test C pre-/postemergence herbicide test; format: in vivo, Ipomoea coccinea; design: key to Plant response rating, Morningglory: 0 = no effect, 100 = complete control; conditions: preemergence
Text: (§1) Seeds of plant species selected from bermudagrass (Cynodon dactylon (L.) Pers.), Surinam grass (Urochloa decumbens (Staph) R. D. Webster, previously named Brachiaria decumbens Stapf), cocklebur (Xanthium strumarium L.), corn (Zea mays L.), large crabgrass (Digitaria sanguinalis (L.) Scop.), woolly cupgrass (Eriochloa villosa (Thunb.) Kunth), giant foxtail (Setaria faberi Herrm.), goosegrass (Eleusine indica (L.) Gaertn.), johnsongrass (Sorghum halepense (L.) Pers.), kochia (Kochia scoparia (L.) Schrad.), lambsquarters (Chenopodium album L.), morningglory (Ipomoea coccinea L.), eastern black nightshade (Solanum ptycanthum Dunal), yellow nutsedge (Cyperus esculentus L.), pigweed (Amaranthus retroflexus L.), common ragweed (Ambrosia elatior L.), soybean (Glycine max (L.) Merr.), common (oilseed) sunflower (Helianthus annuus L.) and velvetleaf (Abutilon theophrasti Medik.) were planted and treated preemergence with test chemicals formulated in a non-phytotoxic solvent mixture which included a surfactant.
(§2) At the same time, plants selected from these crop and weed species and also winter barley (Hordeum vulgare L.), blackgrass (Alopecurus myosuroides Huds.), canarygrass (Phalaris minor Retz.), chickweed (Stellaria media (L.) Vill.), downy bromegrass (Bromus tectorum L.), green foxtail (Setaria viridis (L.) Beauv.), Italian ryegrass (Lolium multiflorum Lam.), wheat (Triticum aestivum L.), wild oat (Avenafatua L.) and windgrass (Apera spica-venti (L.) Beauv.) were treated with postemergence applications of some of the test chemicals formulated in the same manner. Plants ranged in height from 2 to 18 cm (1- to 4-leaf stage) for postemergence treatments. Plant species in the flooded paddy test consisted of rice (Oryza sativa), smallflower umbrella sedge (Cyperus difformis L.), ducksalad (Heteranthera limosa (Sw.) Willd.) and barnyardgrass (Echinochloa crus-galli (L.) Beauv.) grown to the 2-leaf stage for testing. Treated plants and controls were maintained in a greenhouse for 12 to 14 days, after which time all species were compared to controls and visually evaluated. Plant response ratings, summarized in Table C, are based on a scale of 0 to 100 where 0 is no effect and 100 is complete control. A dash (-) response means no test result.

soybean = experiment: Test C pre-/postemergence herbicide test; format: in vivo, Glycine max; conditions: preemergence
Text: as §1, §2

corn = experiment: Test C pre-/postemergence herbicide test; format: in vivo, Zea mays; conditions: preemergence
Text: as §1, §2

common ragweed = experiment: Test C pre-/postemergence herbicide test; format: in vivo, Ambrosia elatior; design: key to Plant response rating, Ragweed: 0 = no effect, 100 = complete control; conditions: preemergence
Text: as §1, §2

Surinam grass = experiment: Test C pre-/postemergence herbicide test; format: in vivo, Urochloa decumbens; conditions: preemergence
Text: as §1, §2

giant foxtail = experiment: Test C pre-/postemergence herbicide test; format: in vivo, Setaria faberi; conditions: preemergence
Text: as §1, §2

[2] = 125 g ai/ha, scale 0 to 100 (0 no effect, 100 complete control)
[3] = 250 g ai/ha, scale of 0 to 100, 0 is no effect, 100 is complete control
[4] = scale 0 to 100 (0 no effect, 100 complete control)
[5] = 62 g ai/ha, scale 0 to 100 (0 no effect, 100 complete control)
[6] = Postemergence, 500 g ai/ha, 0 to 100 scale, 0 no effect, 100 complete control
[7] = Postemergence, 2000 g ai/ha, 0 to 100 scale, 0 no effect, 100 complete control
[8] = Preemergence, 2000 g ai/ha, visual rating, 0 to 100 scale (0 no effect, 100 complete control)
[9] = preemergence, 500 g ai/ha, visual injury, 0 to 100 scale (0 no effect, 100 complete control)
[10] = 125 g ai/ha, scale 0 (no effect) to 100 (complete control), visual, 12 to 14 days
[11] = 500 g ai/ha, scale 0 to 100 (0 no effect, 100 complete control), visual, 12 to 14 days

Compound: C#CCNC(=O)c1cc(NC(=O)c2cc(C(C)(C)C)nn2CC)ccn1 [Compound 283]
- Sedge, Umbrella plant response rating ([1]; 62 g ai/ha, scale 0 to 100): 0
- Sedge, Umbrella plant response rating [1, 2]: 0
- Sedge, Umbrella plant response rating [1, 3]: 0
- Plant response rating, Sedge, Umbrella [1, 4]: 0
- Barnyardgrass plant response rating (barnyardgrass; [5]): 0
- Barnyardgrass plant response rating (barnyardgrass; [2]): 0
- Barnyardgrass plant response rating (barnyardgrass; [3]): 0
- Plant response rating, Barnyardgrass (barnyardgrass; [4]): 10
- Velvetleaf plant response rating (velvetleaf; [6]): 15
- Plant response rating, Velvetleaf (velvetleaf; [7]): 35
- Velvetleaf plant response rating (velvetleaf; [8]): 15
- Velvetleaf plant response rating (velvetleaf; [9]): 0
- Rice plant response rating (rice; 62 g ai/ha, scale 0 to 100): 0
- Rice plant response rating (rice; [2]): 0
- Rice plant response rating (rice; [3]): 0
- Plant response rating, Rice (rice; [4]): 0

Compound: CCn1nc(C(C)(C)C)cc1C(=O)Nc1cc(C(=O)N(C)OC)ccc1F [Compound 244]
- Sedge, Umbrella plant response rating [1, 5]: 20
- Sedge, Umbrella plant response rating [1, 2]: 65
- Sedge, Umbrella plant response rating [1, 3]: 70
- Plant response rating, Sedge, Umbrella [1, 4]: 85
- Plant response rating, Morningglory (morningglory; 62 g ai/ha, scale 0 to 100): 0
- Plant response rating, Morningglory (morningglory; [10]): 15
- Plant response rating, Morningglory (morningglory; 250 g ai/ha, scale 0-100): 20
- Plant response rating, Morningglory (morningglory; [11]): 55
- Barnyardgrass plant response rating (barnyardgrass; [5]): 0
- Barnyardgrass plant response rating (barnyardgrass; [2]): 70
- Barnyardgrass plant response rating (barnyardgrass; [3]): 75
- Plant response rating, Barnyardgrass (barnyardgrass; [4]): 80
- Plant response rating, Soybean (soybean; 62 g ai/ha, scale 0 to 100): 0
- Plant response rating, Soybean (soybean; 250 g ai/ha, scale 0-100): 10
- Plant response rating, Soybean (soybean; [11]): 15
- Plant response rating, Corn (corn; 62 g ai/ha, scale 0 to 100): 0
- Plant response rating, Corn (corn; [10]): 10
- Plant response rating, Corn (corn; 250 g ai/ha, scale 0-100): 10
- Plant response rating, Corn (corn; [11]): 45
- Plant response rating, Ragweed (common ragweed; 62 g ai/ha, scale 0 to 100): 95
- Plant response rating, Ragweed (common ragweed; 250 g ai/ha, scale 0-100): 100
- Plant response rating, Ragweed (common ragweed; [11]): 100
- Rice plant response rating (rice; [5]): 40
- Rice plant response rating (rice; [2]): 70
- Rice plant response rating (rice; [3]): 75
- Plant response rating, Rice (rice; [4]): 75
- Plant response rating, Surinam Grass (Surinam grass; 62 g ai/ha, scale 0 to 100): 100
- Plant response rating, Surinam Grass (Surinam grass; 250 g ai/ha, scale 0-100): 100
- Plant response rating, Surinam Grass (Surinam grass; [11]): 100
- Plant response rating, Foxtail, Giant (giant foxtail; 62 g ai/ha, scale 0 to 100): 80
- Plant response rating, Foxtail, Giant (giant foxtail; [10]): 95
- Plant response rating, Foxtail, Giant (giant foxtail; 250 g ai/ha, scale 0-100): 95
- Plant response rating, Foxtail, Giant (giant foxtail; [11]): 100

Compound: CCn1nc(C(C)(C)C)cc1C(=O)Nc1nc(C(=O)N2CC=CC2)ccc1F [Compound 281]
- Sedge, Umbrella plant response rating ([1]; 62 g ai/ha, scale 0 to 100): 15
- Sedge, Umbrella plant response rating [1, 2]: 20
- Sedge, Umbrella plant response rating [1, 3]: 40
- Plant response rating, Sedge, Umbrella [1, 4]: 90
- Barnyardgrass plant response rating (barnyardgrass; [5]): 0
- Barnyardgrass plant response rating (barnyardgrass; [2]): 20
- Barnyardgrass plant response rating (barnyardgrass; [3]): 30
- Plant response rating, Barnyardgrass (barnyardgrass; [4]): 65
- Velvetleaf plant response rating (velvetleaf; [6]): 35
- Plant response rating, Velvetleaf (velvetleaf; [7]): 40
- Velvetleaf plant response rating (velvetleaf; [8]): 35
- Velvetleaf plant response rating (velvetleaf; [9]): 10
- Rice plant response rating (rice; 62 g ai/ha, scale 0 to 100): 0
- Rice plant response rating (rice; [2]): 0
- Rice plant response rating (rice; [3]): 15
- Plant response rating, Rice (rice; [4]): 50
